{
  "source": "patent US20260027179A1",
  "about": "“ANTI-SYNUCLEINOPATHY PEPTIDE AND METHODS TO TREAT NEURODEGENERATIVE DISEASES” (University of British Columbia, priority 2021, published 2026)",
  "key": {"[1]": {"target": "T1, endogenous α-synuclein (Rattus norvegicus, UniProt P37377)", "T1 construct": "endogenous in cells; host or cells: primary rat cortical neurons (14 DIV) and primary rat ventral midbrain neurons (3 DIV)", "test": "Knockdown of endogenous α-synuclein in primary cortical neuron cultures, immunoblot", "assay_type": "cell-based", "method": "Primary rat neuron cultures were prepared from embryos of pregnant Sprague-Dawley rats (E18). The experimental protocol was approved by the University of British Columbia Animal Care Committee. Briefly, the cortical tissue or ventral midbrain tissue was isolated into ice cold HBSS (Invitrogen, 14170-112) and then digested with 0.25% trypsin-EDTA at 37° C. for 30 min. After washing with warm DMEM (supplemented with 10% FBS) three times, neurons were suspended in neuron culture media and dissociated by trituration using varying sizes of pipettes. Neurons were then centrifuged, and the pellet was re-suspended in culture media, washed twice with culture media, and plated on the poly-D-lysine-coated plates. Neuron culture was maintained in the 37° C. incubator with […] and 5% CO2. The morning after culturing, 2/3 of the neuron culture media was replaced with fresh neuron culture media. Media was then replaced every 3-4 days. Primary rat cortical neuron culture was used 14 days in vitro (DIV) and primary rat ventral midbrain neuron culture was used 3 DIV.\nTat-βsyn-degron and Tat-βsyn peptides were first dissolved in sterile water as a 25 mM stock solution and then diluted directly in the neurobasal culture media to make the desired working concentration. 20 mM MPP+iodide stock solution was made freshly each time and diluted in the neurobasal culture media directly to make the desired working concentration. For 48 hrs treatment, neuron culture media containing MPP+ and peptides were replaced every 24 hrs.\n(§1) Brain tissues or cultured cells were lysed on ice in the lysis buffer and then the solution was centrifuged at 14,000 rpm for 10 min at 4° C. Next, the supernatant was collected and protein concentrations were determined using a BCA protein assay kit (Thermo Scientific, 23227). Equal amount of protein samples was mixed with 4× sample buffer, boiled at 100° C. for 5 min, and separated on 10% sodium dodecyl sulphate-polyacrylamide gel electrophoresis (SDS-PAGE). Proteins were then transferred to Immobilon-PTM polyvinylidene fluoride (PVDF) membranes (Bio-Rad, 162-0177). The membranes were blocked with 5% non-fat milk in Tris-buffered saline containing 0.1% Tween-20 (TBST) for 1 hr at room temperature, and then incubated overnight at 4° C. with primary antibody. After washing 3×5 min in TBST, membranes were incubated with horseradish peroxidase-conjugated secondary antibody for 1 hr at room temperature. After another three washes with TBST, protein was visualized in the Bio-Rad Imager using ECL western blotting substrate (Pierce, 32016). The band density of each protein was quantified by the Bio-Rad Quantity One software and the relative optical density was analyzed relative to the loading control β-actin on the same membrane."}, "[2]": {"target": "T2, purified recombinant human α-synuclein (Homo sapiens, UniProt P37840)", "T2 construct": "His (histidine tag) (N); purchased Sigma S7820-500UG", "test": "Biacore peptide-protein binding assay", "conditions": "0.20-12.50 μM peptide, report point 20 seconds into dissociation", "method": "Biacore experiments were performed using a Biacore 3000 instrument (GE Healthcare Biosciences, Upsala, Sweden) and HBS running buffer, pH 7.4, containing 10 mM HEPES, 150 mM NaCl, 3 mM EDTA, and 0.005% surfactant P20. A research-grade CM5 sensor chip was activated with a mixture containing equal molar amounts of EDC (N-ethyl-N′-(dimethylaminopropyl) carbodiide and NHS (N-hydroxysuccinimide). Purified recombinant human α-synuclein (N-terminal histidine tagged, Sigma, S7820-500UG), diluted in sodium acetate pH 3.1, was then injected and covalently coupled to a flow cell of the sensor chip surface by amide bonding. Residual unreacted sites were blocked with ethanolamine. A reference surface, to account for non-specific binding, was similarly generated by activating and blocking an adjacent flow cell. Approximately 1500 resonance units (RU), equivalent to a surface concentration of 1500 pg/mm^2 of α-synuclein, was immobilized.\nTo ascertain the binding interaction between α-synuclein knockdown peptides and α-synuclein, synthetic Tat-βsyn-degron peptide or control tat peptide was serially diluted and sequentially injected over the active surface containing immobilized α-synuclein and the reference surface for 3 minutes at a flow rate of 30 μl/minute. The peptides were then allowed to dissociate for 3 minutes during which time HBS running buffer was injected. The resultant sensorgrams were double-referenced by subtracting out the binding on the reference surface and the response from the HBS blank buffer control. Binding response report points were collected 20 seconds into the dissociation phase of the interaction at time 200 seconds, which represents a stable binding response and excludes bulk refractive index changes and nonspecific binding."}, "[3]": {"test_system": "C57BL/6 mice", "test": "MPTP mouse model, rotarod test", "assay_type": "in vivo", "conditions": "peptide 6 μmol/kg i.p. twice a day for 12 days, vs MPTP group", "method": "(§2) C57BL/6 mice (20-25 g) received intraperitoneal (i.p.) injection of 30 mg/kg parkinsonian toxin MPTP hydrochloride once a day for 5 days to induce dopaminergic neuron death in the substantia nigra, while the control mice received equal volumes of saline injection. 6 μmol/kg Tat-βsyn-degron peptide or control Tat-βsyn peptide was i.p. injected into the MPTP-treated mice every 12 hrs from the first day of MPTP injection until 7 days after the last injection of MPTP. All groups of mice then underwent a rotarod test before they were sacrificed.\nThe rotarod test was performed as previously described (Heldermon, C. D. et al., PloS one 2, e772, doi:10.1371/journal.pone.0000772 (2007)), with modifications. Briefly, 6 days after the last MPTP injection, all mice received 4 rounds of training on the rotarod (Stoelting Co.). In the first two rounds of training, the rotarod was maintained at constant speed of 20 rpm for 3 min. In the second two rounds of training, the rotarod reversed rotation direction every 3 turns at the constant speed of 20 rpm for 3 min. […] Mice were tested 10 times at 20 min intervals, and the time that they remained on the rotarod during each test was recorded. […] The motor performance of the mouse was expressed as the latency to fall off the rotarod."}, "[4]": {"test_system": "dopaminergic neurons", "test": "MPTP mouse model, dopaminergic neuronal damage (TH immunoblotting, TH immunohistochemistry)", "assay_type": "in vivo", "conditions": "peptide 6 μmol/kg i.p. twice a day for 12 days", "method": "C57BL/6 mice were i.p. injected with 30 mg/kg parkinsonian toxin MPTP (or saline as control), once per day for 5 consecutive days, to induce dopaminergic neuron damage. The effects of MPTP administration on mouse rotarod performance and damage to dopaminergic neurons were then analyzed 1 week after the last injection of MPTP. To determine the effect of α-synuclein knockdown in protecting dopaminergic neurons against MPTP, the Tat-βsyn-degron peptide or its control Tat-βsyn (6 μmol/kg; i.p.) was used in some animals twice a day for 12 days, beginning the first day of MPTP injection. […] The striatum is a region that receives dopaminergic neuronal projections from the substantia nigra and is also deeply affected in PD. Consistent with the specific neurotoxic effects of MPTP on dopaminergic neurons, in mice receiving MPTP injection alone there was a significant loss of protein TH in both dopaminergic neurons in the substantia nigra-containing ventral midbrain (FIGS. 6a and 6c) and dopaminergic neuronal terminals in the striatum (FIGS. 6d and 6f). […] As expected, the specific knockdown of α-synuclein by Tat-βsyn-degron protected against MPTP-induced dopaminergic neuronal injury (FIGS. 6c and 6f).\nas §2, §1\nC57BL/6 mice were anesthetized with 1.5 g/kg urethane (Sigma, U2500) and then perfused with 0.9% saline and 4% paraformaldehyde. Brains were removed and fixed in 4% paraformaldehyde for 24 hrs before being transferred to 30% sucrose/PBS solution for cryoprotection. The brains were then sectioned into 30 μm slices using a Leica cryostat. After blocking and permeabilization using a PBS solution containing 1% BSA and 0.2% Triton X-100 for 30 min at room temperature, the brain slices were incubated with anti-TH antibody (1:800 dilution) for 3 days at 4° C. Finally, the TH-positive neurons in the substantia nigra and TH-positive neuronal terminals in the striatum were stained using the anti-mouse Ig HRP detection kit (BD Transduction Laboratories, 551011) according to manufacturer's instruction, and visualized under Zeiss Axio Observer D1 microscope. […]"}},
  "note": "Peptide text beside a SMILES is read from it. * marks the point of attachment. Cbz = O=C(OCc1ccccc1)*",
  "data": [
    {"compound": "CC(C)C[C@@H](C=O)NC(=O)[C@H](CC(C)C)NC(=O)[C@H](CC(C)C)NC(=O)OCc1ccccc1", "note": "[MG132, reference compound] (Cbz-Leu-Leu-Leu-aldehyde)", "values": [
      {"measurement": "effect on Tat-βsyn-degron induced knockdown of α-synuclein", "setting": "[1]; 10 μM MG132 + 50 μM Tat-βsyn-degron, 24 hrs", "result": "prevented Tat-βsyn-degron induced knockdown of α-synuclein"}
    ]},
    {"compound": "YGRKKRRQRRR [Tat peptide, reference compound]", "values": [
      {"measurement": "binding response to immobilized α-synuclein", "setting": "[2]", "result": "little binding"}
    ]},
    {"compound": "YGRKKRRQRRRGVLYVGSKTRRRRG [Tat-βsynN-degron]", "values": [
      {"measurement": "binding response to immobilized α-synuclein", "setting": "[2]", "result": "robust and similar binding"}
    ]},
    {"compound": "YGRKKRRQRRRRTKSGVYLVG [Tat-βsyn, control peptide lacking the proteasomal targeting signal, reference compound]", "values": [
      {"measurement": "MPTP-induced motor deficits (latency to fall off the rotarod)", "setting": "[3]", "result": "significantly reduced"},
      {"measurement": "endogenous α-synuclein protein levels", "setting": "[1]; bath application 24 hrs, 5-50 μM (control 50 μM), cortical neuron cultures", "result": "had no effect"},
      {"measurement": "MPTP-induced dopaminergic neuronal damage (overall, FIG. 6 and FIG. 7a-d)", "setting": "[4]", "result": "small, non-significant decrease"}
    ]}
  ]
}
